From ChEMBL document CHEMBL3044601, “Movento®, an innovative ambimobile insecticide for sucking insect pest control in agriculture: Biological profile and field performance” (Crop Prot, 2009)
Converted amounts (≈) assume the structure as drawn.

Assays:
Bemisia tabaci [1] = assay: Resistance ratio, LC50 for second instar nymph of organophosphates, pyrethroids, buprofezin, pyriproxyfen and pymetrozin-resistant Bemisia tabaci BR-JM03 (sweet potato whitefly) to LC50 for second instar nymph of Bemisia tabaci SUD-S; assay type: functional
Bemisia tabaci [2] = assay: Insecticidal activity against second instar nymph of organophosphates-resistant Bemisia tabaci ESP-00 (sweet potato whitefly) in cotton plant leaf after 10 days by leaf-dip bioassay; assay type: functional; conditions: ESP-00, 240 h
Myzus persicae [3] = assay: Insecticidal activity against third-instar nymph of carbamates, pyrethroids-resistant Myzus persicae JR (green peach aphid) in Brassica oleracea leaf disc after 3 days by leaf-dip bioassay; assay type: functional; conditions: foliar, 72 h
Myzus persicae [4] = assay: Insecticidal activity against Myzus persicae (green peach aphid) infected first leaf of cabbage plant assessed as phloem-systemic efficacy at 0.032 ug/plant treated with 2 g/L rapeseed oil methylester measured after 7 days on 3rd leaf by phloem mobility bioassay; assay type: functional
Myzus persicae [5] = assay: Resistance ratio, LC50 for third instar nymph of carbamates, pyrethroids-resistant Myzus persicae F04-01 (green peach aphid) to LC50 for third instar nymph of Myzus persicae NS; assay type: functional
Bemisia tabaci [6] = assay: Insecticidal activity against second instar nymph of Bemisia tabaci SUD-S (sweet potato whitefly) in cotton plant leaf after 10 days by leaf-dip bioassay; assay type: functional; conditions: 240 h
Bemisia tabaci [7] = assay: Resistance ratio, LC50 for second instar nymph of organophosphates-resistant Bemisia tabaci MEX03-02 (sweet potato whitefly) to LC50 for second instar nymph of Bemisia tabaci SUD-S; assay type: functional
Myzus persicae [8] = assay: Insecticidal activity against Myzus persicae (green peach aphid) infected first leaf of cabbage plant assessed as phloem-systemic efficacy at 20 ug/plant treated with 2 g/L rapeseed oil methylester measured after 7 days on 3rd leaf by phloem mobility bioassay; assay type: functional
Bemisia tabaci [9] = assay: Resistance ratio, LC50 for second instar nymph of organophosphates-resistant Bemisia tabaci CRE04-01 (sweet potato whitefly) to LC50 for second instar nymph of Bemisia tabaci SUD-S; assay type: functional
Myzus persicae [10] = assay: Resistance ratio, LC50 for third instar nymph of carbamates, pyrethroids-resistant Myzus persicae JR (green peach aphid) to LC50 for third instar nymph of Myzus persicae NS; assay type: functional
Myzus persicae [11] = assay: Insecticidal activity against Myzus persicae (green peach aphid) infected first leaf of cabbage plant assessed as phloem-systemic efficacy at 0.16 ug/plant treated with 2 g/L rapeseed oil methylester measured after 7 days on 3rd leaf by phloem mobility bioassay; assay type: functional
Myzus persicae [12] = assay: Insecticidal activity against third-instar nymph of Myzus persicae NS (green peach aphid) in Brassica oleracea leaf disc after 3 days by leaf-dip bioassay; assay type: functional; conditions: foliar, 72 h
Myzus persicae [13] = assay: Insecticidal activity against Myzus persicae (green peach aphid) infected first leaf of cabbage plant assessed as phloem-systemic efficacy at 0.8 ug/plant treated with 2 g/L rapeseed oil methylester measured after 7 days on 3rd leaf by phloem mobility bioassay; assay type: functional
Myzus persicae [14] = assay: Insecticidal activity against third-instar nymph of carbamates, pyrethroids-resistant Myzus persicae F04-01 (green peach aphid) in Brassica oleracea leaf disc after 3 days by leaf-dip bioassay; assay type: functional; conditions: F04-01, foliar, 72 h
Bemisia tabaci [15] = assay: Insecticidal activity against second instar nymph of organophosphates-resistant Bemisia tabaci ISR-02 (sweet potato whitefly) in cotton plant leaf after 10 days by leaf-dip bioassay; assay type: functional; conditions: ISR-02, 240 h
Bemisia tabaci [16] = assay: Insecticidal activity against second instar nymph of organophosphates, pyrethroids, buprofezin, pyriproxyfen and pymetrozin-resistant Bemisia tabaci BR-JM03 (sweet potato whitefly) in cotton plant leaf after 10 days by leaf-dip bioassay; assay type: functional; conditions: BR-JM03, 240 h
[17] = Lipophilicity, log P of the compound; assay type: physicochemical; conditions: octanol/water
Myzus persicae [18] = assay: Insecticidal activity against Myzus persicae (green peach aphid) infected first leaf of cabbage plant assessed as phloem-systemic efficacy at 4 ug/plant treated with 2 g/L rapeseed oil methylester measured after 7 days on 3rd leaf by phloem mobility bioassay; assay type: functional
Myzus persicae [19] = assay: Insecticidal activity against Myzus persicae (green peach aphid) infected first leaf of cabbage plant assessed as phloem-systemic efficacy at 100 ug/plant treated with 2 g/L rapeseed oil methylester measured after 7 days on 3rd leaf by phloem mobility bioassay; assay type: functional
Bemisia tabaci [20] = assay: Insecticidal activity against second instar nymph of organophosphates-resistant Bemisia tabaci CRE04-01 (sweet potato whitefly) in cotton plant leaf after 10 days by leaf-dip bioassay; assay type: functional; conditions: CRE04-01, 240 h
Bemisia tabaci [21] = assay: Insecticidal activity against second instar nymph of organophosphates-resistant Bemisia tabaci MEX03-02 (sweet potato whitefly) in cotton plant leaf after 10 days by leaf-dip bioassay; assay type: functional; conditions: MEX03-02, 240 h
Myzus persicae [22] = assay: Insecticidal activity against first instar nymph of Myzus persicae (green peach aphid) in Brassica oleracea leaf disc treated with 1 g/L rapeseed oil methylester after 3 days by leaf-dip bioassay; assay type: functional
Bemisia tabaci [23] = assay: Resistance ratio, LC50 for second instar nymph of organophosphates-resistant Bemisia tabaci ISR-02 (sweet potato whitefly) to LC50 for second instar nymph of Bemisia tabaci SUD-S; assay type: functional
Bemisia tabaci [24] = assay: Resistance ratio, LC50 for second instar nymph of organophosphates-resistant Bemisia tabaci ESP-00 (sweet potato whitefly) to LC50 for second instar nymph of Bemisia tabaci SUD-S; assay type: functional
[25] = Dissociation constant, pKa of the compound; assay type: physicochemical
Myzus persicae [26] = assay: Insecticidal activity against adult Myzus persicae (green peach aphid) in Brassica oleracea leaf disc treated with 1 g/L rapeseed oil methylester after 3 days by leaf-dip bioassay; assay type: functional

SMILES: CCOC(=O)OC1=C(c2cc(C)ccc2C)C(=O)N[C@]12CC[C@@H](OC)CC2 [SPIROTETRAMAT]
- RatioLC50 (Bemisia tabaci [1]): 2.5
- LC50 (Bemisia tabaci [2]): 0.74 µg/mL (≈ 1.98 µM)
- LC50 (Myzus persicae [3]): 0.59 µg/mL (≈ 1.58 µM)
- Efficacy (Myzus persicae [4]): 8.8%
- RatioLC50 (Myzus persicae [5]): 0.4
- LC50 (Bemisia tabaci [6]): 0.26 µg/mL (≈ 0.696 µM)
- RatioLC50 (Bemisia tabaci [7]): 1.9
- Efficacy (Myzus persicae [8]): 100%
- RatioLC50 (Bemisia tabaci [9]): 3.8
- RatioLC50 (Myzus persicae [10]): 0.9
- Efficacy (Myzus persicae [11]): 22.5%
- LC50 (Myzus persicae [12]): 0.69 µg/mL (≈ 1.85 µM)
- Efficacy (Myzus persicae [13]): 56.7%
- LC50 (Myzus persicae [14]): 0.27 µg/mL (≈ 0.723 µM)
- LC50 (Bemisia tabaci [15]): 0.72 µg/mL (≈ 1.93 µM)
- LC50 (Bemisia tabaci [16]): 0.64 µg/mL (≈ 1.71 µM)
- logP [17]: 0.3
- Efficacy (Myzus persicae [18]): 85.6%
- Efficacy (Myzus persicae [19]): 100%
- LC50 (Bemisia tabaci [20]): 1 µg/mL (≈ 2.68 µM)
- LC50 (Bemisia tabaci [21]): 0.49 µg/mL (≈ 1.31 µM)
- LC95 (Myzus persicae [22]): 0.73 ppm
- RatioLC50 (Bemisia tabaci [23]): 2.8
- RatioLC50 (Bemisia tabaci [24]): 2.8
- pKa [25]: 5.2
- LC95 (Myzus persicae [26]): 22 ppm
